Columns and labels:
Experiment in all cases: in vitro antibacterial evaluation, MIC by broth dilution
Format in all cases: cell-based
Escherichia coli = settings: 18 hours at 35° C.
Outline: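 Broth dilution MIC per NCCLS M7-A2 in Mueller-Hinton II medium, inoculum 5×10^5 CFU/mL, antibiotic range 64-0.06 μg/mL. MIC taken as lowest concentration inhibiting growth.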

Streptococcus sp. = settings: broth dilution, 18 hours at 35° C.
Outline: (§1)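 Read-out: the lowest concentration at which the test strain fails to grow. Serial dilutions (64-0.06 μg/mL) in Muller-Hinton II […], 5×10^5 CFU/mL inoculum, NCCLS M7-A2 procedure.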

Staphylococcus sp. = settings: broth dilution, 18 hours at 35° C.
Outline: as §1

Enterococcus sp. = settings: broth dilution, 18 hours at 35° C.
Outline: as §1

CC(c1ccccc1)C1NC(=O)CNC(=O)C(CO)NC(=O)C(C(O)C2CN(Cc3ccccc3)C(=NCc3ccccc3)N2C2OC(CO)C(O)C(O)C2O)NC(=O)C(C(O)C2CN(Cc3ccccc3)C(=NCc3ccccc3)N2Cc2ccccc2)NC(=O)C(Cc2ccc(OC3OC(CO)C(OC4OC5COC6(OC5C(O)C4O)C4CC5CC(C4)CC6C5)C(O)C3O)cc2)NC1=O (stereo not drawn) [Example 79, Cyclo[glycyl-β-methylphenylalanyl-O-[4-O-[4,6-O-(2-adamantylidene)hexotpyranosyl]hexopyranosyl]tyrosyl-3-[1,3-dibenzyl-2-(benzylimino)imidazolidin-4-yl]seryl-3-[1-benzyl-2-(benzylimino)-3-hexopyranosylimidazolidin-4-yl]serylseryl]]
32 µg/mL: MIC Enterococcus faecalis (GC 4552) (Enterococcus sp.; Enterococcus faecalis (GC 4552)) | MIC Enterococcus faecium (GC 4556) (Enterococcus sp.; Enterococcus faecium (GC 4556)) | MIC Enterococcus faecalis (GC 3059) (Enterococcus sp.) | MIC Enterococcus faecalis (GC 4552) (Enterococcus sp.) | MIC Enterococcus faecium (GC 4556) (Enterococcus sp.) | MIC Enterococcus faecalis (GC 3059) (Enterococcus sp.; strain GC 3059)
2 µg/mL: MIC Escherichia coli (GC 4560) (Escherichia coli) | MIC Coagulase Negative Staphylococcus (GC 4549) (Staphylococcus sp.; strain GC 4549) | MIC Enterococcus avium (GC 4558) (Enterococcus sp.; Enterococcus avium (GC 4558)) | MIC Enterococcus avium (GC 4558) (Enterococcus sp.)
>128 µg/mL: MIC Escherichia coli (ATCC 25922) (Escherichia coli) | MIC Escherichia coli (GC 4559) (Escherichia coli)
8 µg/mL: MIC Streptococcus pneumoniae (GC 1894) (Streptococcus sp.) | MIC Streptococcus pneumoniae (GC 4565) (Streptococcus sp.) | MIC Streptococcus pneumoniae (GC 1894) (Streptococcus sp.; strain GC 1894) | MIC Streptococcus pneumoniae (GC 4565) (Streptococcus sp.; strain GC 4565) | MIC Staphylococcus aureus (GC 1131) (Staphylococcus sp.; strain GC 1131) | MIC Staphylococcus aureus (GC 4544) (Staphylococcus sp.; strain GC 4544) | MIC Enterococcus faecalis (ATCC 29212) (Enterococcus sp.; Enterococcus faecalis (ATCC 29212)) | MIC Enterococcus faecalis (GC 6189) (Enterococcus sp.; Enterococcus faecalis (GC 6189)) | MIC Enterococcus faecium (GC 2243) (Enterococcus sp.; Enterococcus faecium (GC 2243)) | MIC Enterococcus faecalis (ATCC 29212) (Enterococcus sp.) | MIC Enterococcus faecalis (GC 2691) (Enterococcus sp.) | MIC Enterococcus faecalis (GC 6189) (Enterococcus sp.) | MIC Enterococcus faecium (GC 2243) (Enterococcus sp.) | MIC Enterococcus faecalis (GC 2691) (Enterococcus sp.; strain GC 2691)
4 µg/mL: MIC Streptococcus agalactiae (GC 4564) (Streptococcus sp.) | MIC Streptococcus pneumoniae (ATCC 6301) (Streptococcus sp.) | MIC Streptococcus pyogenes (GC 4563) (Streptococcus sp.) | MIC Streptococcus pneumoniae (ATCC 6301) (Streptococcus sp.; strain ATCC 6301) | MIC Streptococcus pyogenes (GC 4563) (Streptococcus sp.; strain GC 4563) | MIC Streptococcus agalactiae (GC 4564) (Streptococcus sp.; strain GC 4564) | MIC Staphylococcus aureus (ATCC 29213) (Staphylococcus sp.; strain ATCC 29213) | MIC Staphylococcus aureus (GC 3051) (Staphylococcus sp.; strain GC 3051) | MIC Staphylococcus aureus (GC 3053) (Staphylococcus sp.; strain GC 3053) | MIC Staphylococcus aureus (GC 4541) (Staphylococcus sp.; strain GC 4541) | MIC Staphylococcus aureus (GC 4542) (Staphylococcus sp.; strain GC 4542) | MIC Staphylococcus aureus-SMITH (GC 4543) (Staphylococcus sp.; strain GC 4543) | MIC Staphylococcus aureus (GC 4545) (Staphylococcus sp.; strain GC 4545) | MIC Staphylococcus haemolyticus (GC 4546) (Staphylococcus sp.; strain GC 4546) | MIC Coagulase Negative Staphylococcus (GC 4547) (Staphylococcus sp.; strain GC 4547) | MIC Coagulase Negative Staphylococcus (GC 4548) (Staphylococcus sp.; strain GC 4548) | MIC Coagulase Negative Staphylococcus (GC 4551) (Staphylococcus sp.; strain GC 4551) | MIC Coagulase Negative Staphylococcus (GC 6257) (Staphylococcus sp.; strain GC 6257) | MIC Enterococcus faecalis (GC 4553) (Enterococcus sp.; Enterococcus faecalis (GC 4553)) | MIC Enterococcus faecium (GC 4557) (Enterococcus sp.; Enterococcus faecium (GC 4557)) | MIC Enterococcus faecalis (GC 4553) (Enterococcus sp.) | MIC Enterococcus faecium (GC 4557) (Enterococcus sp.)
16 µg/mL: MIC Enterococcus faecalis (GC 4554) (Enterococcus sp.; Enterococcus faecalis (GC 4554)) | MIC Enterococcus faecalis (GC 2242) (Enterococcus sp.) | MIC Enterococcus faecalis (GC 4554) (Enterococcus sp.) | MIC Enterococcus faecalis (GC 2242) (Enterococcus sp.; strain GC 2242)

From US6914045B2, “Glycopeptide antibiotics” (Wyeth Holdings Corporation, priority 2001, dated 2005)
